{"source": "patent US6673800B2", "about": "“4,5,-dihydroisoxazolylakylpiperazine derivatives having selective biological activity at dopamine D3 or D4 receptor, and preparation thereof” (Korea Institute of Science and Technology, priority 2000, dated 2004)", "key": {"[1]": {"target": "cloned human dopamine receptors D1 (Homo sapiens, UniProt P21728)", "sequence (P21728 whole entry)": "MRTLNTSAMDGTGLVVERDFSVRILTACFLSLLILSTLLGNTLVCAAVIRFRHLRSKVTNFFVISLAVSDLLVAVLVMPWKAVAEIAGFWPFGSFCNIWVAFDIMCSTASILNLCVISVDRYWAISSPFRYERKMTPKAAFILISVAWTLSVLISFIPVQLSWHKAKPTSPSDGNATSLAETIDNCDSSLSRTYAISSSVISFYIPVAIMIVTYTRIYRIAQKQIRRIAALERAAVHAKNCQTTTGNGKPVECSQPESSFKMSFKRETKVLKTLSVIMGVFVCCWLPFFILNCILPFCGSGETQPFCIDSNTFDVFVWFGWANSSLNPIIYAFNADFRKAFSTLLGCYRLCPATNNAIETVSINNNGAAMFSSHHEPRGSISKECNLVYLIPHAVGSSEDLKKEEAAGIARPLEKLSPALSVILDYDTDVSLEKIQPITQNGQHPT", "test": "Binding affinity to dopamine receptor, radiolabeled ligand displacement (D1)", "set-up": "dose or concentration left out as unconfirmed", "protocol": "(§1) Binding affinities of the compounds for dopamine receptors were determined indirectly by their ability to displace radiolabeled ligand from cloned human dopamine receptors. Compounds were incubated in receptor suspension to compete with the. radiolabeled ligand. The receptor-bound radiolabeled ligand was separated by filtering through Wallac glass fiber filtermat (GF/C) using Inotech cell harvester of 96-well format. The radioactivity bound to filter was counted by Micro-β counter (Wallac).\n(§2) The aliquots of cloned human dopamine receptors stored at −70° C. were suspended in assay buffer and the content of receptor in each aliquot was determined by Bio-Rad DC protein assay kit to give an optimal protein (receptor) concentration obtained by preliminary receptor binding assay. Receptor suspension adjusted to optimal concentration was aliquoted in proper volume for assay and stored at −70° C. Binding assays of every compound were performed in duplicate and each different buffer solution was used for optimal assay with each subtype of dopamine receptors. Receptor binding assays were carried out in 96-well plates. Receptor suspension of 100 μl was incubated at 27° C. for 30-60 min in a final volume of 0.25 ml reaction mixture containing 50 μl of hot-ligand and 10 μl of test compound.\n(§3) After incubation, the reaction mixture was washed with ice-cold 50 mM Tris-acetate buffer by rapid filtration using a Inotech cell harvester (Inotech, Switzerland) through Whatman GF/C glass fiber filter presoaked in the assay buffer. The filter was covered with MeltiLex, sealed in a sample bag followed by drying in the microwave, and counted by MicroBeta Plus(Wallac, Finland) at a counting efficiency of 30-40%."}, "[2]": {"target": "T1, cloned human dopamine receptors D4 (Homo sapiens, UniProt P21917)", "T1 sequence (P21917 1-419)": "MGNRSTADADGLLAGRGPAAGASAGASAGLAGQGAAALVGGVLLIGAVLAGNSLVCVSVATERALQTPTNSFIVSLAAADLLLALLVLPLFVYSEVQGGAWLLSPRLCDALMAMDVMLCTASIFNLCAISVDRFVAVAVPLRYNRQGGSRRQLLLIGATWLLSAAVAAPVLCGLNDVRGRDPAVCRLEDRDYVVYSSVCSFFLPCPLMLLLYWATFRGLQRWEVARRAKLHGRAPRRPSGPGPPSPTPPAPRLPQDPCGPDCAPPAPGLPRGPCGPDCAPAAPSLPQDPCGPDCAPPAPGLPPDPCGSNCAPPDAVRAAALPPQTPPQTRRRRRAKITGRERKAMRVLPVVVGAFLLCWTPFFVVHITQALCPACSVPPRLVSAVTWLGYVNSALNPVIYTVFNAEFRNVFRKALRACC", "test": "Binding affinity to dopamine receptor, radiolabeled ligand displacement (D4)", "set-up": "Affinity to Dopamine Receptors (% Inhibition) D4: dose or concentration left out as unconfirmed", "protocol": "as §1, §2, §3"}, "[3]": {"target": "cloned human dopamine receptors D2 (Homo sapiens, UniProt P14416)", "sequence (P14416 whole entry)": "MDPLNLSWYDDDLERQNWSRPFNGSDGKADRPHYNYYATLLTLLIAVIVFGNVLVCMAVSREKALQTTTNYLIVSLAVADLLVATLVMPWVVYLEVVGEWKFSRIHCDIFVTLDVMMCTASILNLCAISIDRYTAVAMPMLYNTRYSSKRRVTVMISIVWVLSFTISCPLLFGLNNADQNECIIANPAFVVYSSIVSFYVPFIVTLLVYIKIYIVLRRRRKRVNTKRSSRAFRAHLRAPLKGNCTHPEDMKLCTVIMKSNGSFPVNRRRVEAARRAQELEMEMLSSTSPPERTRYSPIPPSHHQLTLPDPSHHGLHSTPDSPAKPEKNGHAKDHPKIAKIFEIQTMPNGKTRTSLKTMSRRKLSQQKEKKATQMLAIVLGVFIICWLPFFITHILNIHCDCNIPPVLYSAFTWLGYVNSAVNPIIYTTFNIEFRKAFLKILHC", "test": "Binding affinity to dopamine receptor, radiolabeled ligand displacement (D2)", "set-up": "Affinity to Dopamine Receptors (% Inhibition) D2: dose or concentration left out as unconfirmed", "protocol": "as §1, §2, §3"}, "[4]": {"target": "cloned human dopamine receptors D3 (Homo sapiens, UniProt P35462)", "sequence (P35462 whole entry)": "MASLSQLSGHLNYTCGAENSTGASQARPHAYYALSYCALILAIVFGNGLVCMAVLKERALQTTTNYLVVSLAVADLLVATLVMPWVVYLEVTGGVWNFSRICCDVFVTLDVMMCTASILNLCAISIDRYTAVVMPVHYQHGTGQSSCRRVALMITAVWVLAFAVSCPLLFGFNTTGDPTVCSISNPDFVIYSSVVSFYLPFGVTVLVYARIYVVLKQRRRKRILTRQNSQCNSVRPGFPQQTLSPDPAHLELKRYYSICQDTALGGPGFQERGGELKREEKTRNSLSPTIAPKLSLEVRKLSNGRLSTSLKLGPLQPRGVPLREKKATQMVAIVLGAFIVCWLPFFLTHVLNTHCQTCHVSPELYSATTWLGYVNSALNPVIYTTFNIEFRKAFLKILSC", "test": "Binding affinity to dopamine receptor, radiolabeled ligand displacement (D3)", "set-up": "Affinity to Dopamine Receptors (% Inhibition) D3: dose or concentration left out as unconfirmed", "protocol": "as §1, §2, §3"}}, "note": "pIC50: −log10 of the molar value.", "data": [{"smiles": "CCOc1ccccc1N1CCN(CCCC2CC(c3ccc(OC)c(OC)c3)=NO2)CC1", "note": "(racemic) [Compound No. 29]", "values": [{"measurement": "Affinity to Dopamine Receptors (% Inhibition) D1", "setting": "[1]", "result": 40.1, "unit": "%"}, {"measurement": "Affinity to Dopamine Receptors (% Inhibition) D4", "setting": "[2]", "result": 57.4, "unit": "%"}, {"measurement": "pIC50", "setting": "[2]", "result": 6.97}, {"measurement": "Affinity to Dopamine Receptors (% Inhibition) D2", "setting": "[3]", "result": 83.5, "unit": "%"}, {"measurement": "pIC50", "setting": "[3]", "result": 6.96}]}, {"smiles": "CCOc1ccccc1N1CCN(CCCC2CC(c3cccs3)=NO2)CC1", "note": "(racemic) [Compound No. 30]", "values": [{"measurement": "Affinity to Dopamine Receptors (% Inhibition) D1", "setting": "[1]", "result": 57.8, "unit": "%"}, {"measurement": "Affinity to Dopamine Receptors (% Inhibition) D3", "setting": "[4]", "result": 101.2, "unit": "%"}, {"measurement": "pIC50", "setting": "[4]", "result": 8.40}, {"measurement": "Affinity to Dopamine Receptors (% Inhibition) D4", "setting": "[2]", "result": 102.3, "unit": "%"}, {"measurement": "pIC50", "setting": "[2]", "result": 7.96}, {"measurement": "Affinity to Dopamine Receptors (% Inhibition) D2", "setting": "[3]", "result": 88.2, "unit": "%"}, {"measurement": "pIC50", "setting": "[3]", "result": 6.33}]}, {"smiles": "COc1ccccc1N1CCN(CCCCC2CC(c3ccccc3)=NO2)CC1", "note": "(racemic) [Compound No. 34]", "values": [{"measurement": "Affinity to Dopamine Receptors (% Inhibition) D1", "setting": "[1]", "result": 23.6, "unit": "%"}, {"measurement": "Affinity to Dopamine Receptors (% Inhibition) D3", "setting": "[4]", "result": 83.8, "unit": "%"}, {"measurement": "Affinity to Dopamine Receptors (% Inhibition) D4", "setting": "[2]", "result": 100.1, "unit": "%"}, {"measurement": "Affinity to Dopamine Receptors (% Inhibition) D2", "setting": "[3]", "result": 58.3, "unit": "%"}]}, {"smiles": "COc1ccc(C2=NOC(CCCN3CCN(c4ccccc4)CC3)C2)cc1OC", "note": "(stereo not shown) [Compound No. 7]", "values": [{"measurement": "Affinity to Dopamine Receptors (% Inhibition) D1", "setting": "[1]", "result": 9.0, "unit": "%"}, {"measurement": "Affinity to Dopamine Receptors (% Inhibition) D3", "setting": "[4]", "result": 102.5, "unit": "%"}, {"measurement": "pIC50", "setting": "[4]", "result": 7.68}, {"measurement": "Affinity to Dopamine Receptors (% Inhibition) D4", "setting": "[2]", "result": 103.9, "unit": "%"}, {"measurement": "pIC50", "setting": "[2]", "result": 7.15}, {"measurement": "Affinity to Dopamine Receptors (% Inhibition) D2", "setting": "[3]", "result": 49.0, "unit": "%"}, {"measurement": "pIC50", "setting": "[3]", "result": 5.03}]}, {"smiles": "COc1ccc(C2=NOC(CCCN3CCN(c4ccccc4OC)CC3)C2)cc1OC", "note": "(stereo not shown) [Compound No. 9]", "values": [{"measurement": "Affinity to Dopamine Receptors (% Inhibition) D1", "setting": "[1]", "result": 19.6, "unit": "%"}, {"measurement": "Affinity to Dopamine Receptors (% Inhibition) D3", "setting": "[4]", "result": 101.2, "unit": "%"}, {"measurement": "pIC50", "setting": "[4]", "result": 8.30}, {"measurement": "Affinity to Dopamine Receptors (% Inhibition) D4", "setting": "[2]", "result": 104.4, "unit": "%"}, {"measurement": "pIC50", "setting": "[2]", "result": 7.64}, {"measurement": "Affinity to Dopamine Receptors (% Inhibition) D2", "setting": "[3]", "result": 57.7, "unit": "%"}, {"measurement": "pIC50", "setting": "[3]", "result": 5.84}]}, {"smiles": "COc1ccccc1N1CCN(CCCC2CC(c3cccs3)=NO2)CC1", "note": "(stereo not shown) [Compound No. 10]", "values": [{"measurement": "Affinity to Dopamine Receptors (% Inhibition) D1", "setting": "[1]", "result": 19.9, "unit": "%"}, {"measurement": "Affinity to Dopamine Receptors (% Inhibition) D3", "setting": "[4]", "result": 99.9, "unit": "%"}, {"measurement": "pIC50", "setting": "[4]", "result": 7.72}, {"measurement": "Affinity to Dopamine Receptors (% Inhibition) D4", "setting": "[2]", "result": 103.6, "unit": "%"}, {"measurement": "pIC50", "setting": "[2]", "result": 7.47}, {"measurement": "Affinity to Dopamine Receptors (% Inhibition) D2", "setting": "[3]", "result": 56.0, "unit": "%"}, {"measurement": "pIC50", "setting": "[3]", "result": 5.71}]}]}
